Assay results reported in patent US20140271474A1, “INHIBITOR PROBES FOR IMAGING SODIUM-GLUCOSE COTRANSPORTERS IN HEALTH AND DISEASE” (THE REGENTS OF THE UNIVERSITY OF CALIFORNIA, priority 2011, published 2014).

Key:
[1] = system: GLUTs; conditions: cited from earlier work
[2] = target: T1, SGLT1 (Homo sapiens, UniProt P13866); conditions: specific, non-metabolized substrate; cited from earlier work
T1 sequence (P13866 1-664): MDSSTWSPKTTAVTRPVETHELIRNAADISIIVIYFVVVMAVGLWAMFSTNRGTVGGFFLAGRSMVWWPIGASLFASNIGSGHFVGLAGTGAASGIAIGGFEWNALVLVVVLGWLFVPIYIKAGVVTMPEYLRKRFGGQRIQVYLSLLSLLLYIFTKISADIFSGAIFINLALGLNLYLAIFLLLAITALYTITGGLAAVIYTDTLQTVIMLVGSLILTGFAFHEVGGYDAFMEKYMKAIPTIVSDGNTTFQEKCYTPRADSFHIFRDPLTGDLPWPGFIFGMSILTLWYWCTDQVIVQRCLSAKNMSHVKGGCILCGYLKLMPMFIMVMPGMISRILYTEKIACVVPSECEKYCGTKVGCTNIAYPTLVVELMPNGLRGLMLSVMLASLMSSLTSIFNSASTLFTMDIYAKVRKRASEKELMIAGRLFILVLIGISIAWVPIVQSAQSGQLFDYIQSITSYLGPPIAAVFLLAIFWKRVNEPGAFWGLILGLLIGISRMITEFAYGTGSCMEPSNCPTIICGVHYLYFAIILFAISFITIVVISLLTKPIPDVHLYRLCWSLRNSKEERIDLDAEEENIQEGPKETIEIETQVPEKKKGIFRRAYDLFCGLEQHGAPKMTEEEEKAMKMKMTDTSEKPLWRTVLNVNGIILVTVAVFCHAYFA

[3] = system: SGLTs; conditions: cited from earlier work
[4] = target: SGLT2 (Homo sapiens, UniProt P31639); conditions: read-out: Ki for SGLT2
Source text: A method of making radiolabeled inhibitors pyranosides is also provided.

[5] = system: SGLT2 over SGLT1; conditions: cited from earlier work
[6] = for 1-25 hours after oral administration of dapagliflozin; cited from earlier work
[7] = major metabolite of dapagliflozin; cited from earlier work
[8] = target: T2, SGLT2 (Rattus norvegicus, UniProt P53792)
T2 sequence (P53792 1-670): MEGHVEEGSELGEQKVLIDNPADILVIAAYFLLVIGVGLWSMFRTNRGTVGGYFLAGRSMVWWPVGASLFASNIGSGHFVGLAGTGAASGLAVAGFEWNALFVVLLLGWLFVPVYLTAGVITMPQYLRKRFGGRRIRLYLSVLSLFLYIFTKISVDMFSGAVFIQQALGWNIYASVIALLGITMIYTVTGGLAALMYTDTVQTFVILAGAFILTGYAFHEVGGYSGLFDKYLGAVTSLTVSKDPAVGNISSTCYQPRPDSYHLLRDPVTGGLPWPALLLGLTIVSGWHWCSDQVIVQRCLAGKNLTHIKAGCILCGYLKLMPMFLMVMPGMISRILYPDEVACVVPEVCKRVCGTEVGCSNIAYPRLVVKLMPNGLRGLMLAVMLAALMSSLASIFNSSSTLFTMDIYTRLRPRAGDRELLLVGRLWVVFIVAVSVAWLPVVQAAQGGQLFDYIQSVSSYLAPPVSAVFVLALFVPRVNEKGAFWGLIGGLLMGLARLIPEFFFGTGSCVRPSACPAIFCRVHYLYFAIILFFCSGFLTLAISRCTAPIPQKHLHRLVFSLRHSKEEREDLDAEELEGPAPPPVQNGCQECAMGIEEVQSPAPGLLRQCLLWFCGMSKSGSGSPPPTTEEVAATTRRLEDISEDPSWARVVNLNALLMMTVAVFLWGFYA

[9] = cited from earlier work
[10] = cited from earlier work; remark: listed apart in the source
[11] = images summed 50-60 minutes post injection
[12] = type 2 diabetic patients, tested doses

SGLT2 (Homo sapiens, UniProt P31639), sequence (P31639 whole entry): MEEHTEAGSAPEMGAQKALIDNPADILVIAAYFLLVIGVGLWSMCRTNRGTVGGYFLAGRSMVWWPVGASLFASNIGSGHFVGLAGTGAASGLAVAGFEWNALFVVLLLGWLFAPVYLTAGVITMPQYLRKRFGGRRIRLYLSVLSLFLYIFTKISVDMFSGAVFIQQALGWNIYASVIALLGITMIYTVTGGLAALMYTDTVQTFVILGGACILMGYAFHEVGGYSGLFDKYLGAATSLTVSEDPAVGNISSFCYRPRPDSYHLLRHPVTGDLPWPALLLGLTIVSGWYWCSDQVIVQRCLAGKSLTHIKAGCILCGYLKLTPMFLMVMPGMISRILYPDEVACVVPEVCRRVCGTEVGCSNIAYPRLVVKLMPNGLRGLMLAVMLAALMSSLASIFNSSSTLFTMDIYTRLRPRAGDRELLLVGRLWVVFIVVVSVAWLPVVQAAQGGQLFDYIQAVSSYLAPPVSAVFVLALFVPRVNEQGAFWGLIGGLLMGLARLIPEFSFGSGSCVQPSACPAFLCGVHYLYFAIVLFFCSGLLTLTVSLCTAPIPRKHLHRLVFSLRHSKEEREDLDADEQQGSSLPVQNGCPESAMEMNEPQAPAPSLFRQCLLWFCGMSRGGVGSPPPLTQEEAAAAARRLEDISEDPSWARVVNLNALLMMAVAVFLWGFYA

## CO[C@H]1O[C@H](CO)[C@@H](O)[C@H](O)[C@H]1O [alpha-methyl-D-glucopyranoside]
[1]
  substrate for GLUTs: not a substrate
[2]
  concentration reached in cells above plasma concentrations: ≤ 800 fold

## O=C[C@@H](O)[C@@H](O)[C@H](O)[C@H](O)CO [mannose]
[3]
  substrate for SGLTs: poor substrates

## O=CC[C@@H](O)[C@H](O)[C@H](O)CO [2-deoxy-D-glucose]
[3]
  substrate for SGLTs: poor substrates

## CCOc1ccc(Cc2cc([C@@H]3O[C@H](CO)[C@@H](F)[C@H](O)[C@H]3O)ccc2Cl)cc1 [[18F]-dapagliflozin, (1S)-1,5-anhydro-1-C-{4-chloro-3-[(4-ethoxyphenyl)methyl]phenyl}-4-[18F]-4-deoxy-D-glucitol]
[4]
  Ki: 1 to 5 nM

## Cc1c(Cc2ccc(OC(C)C)cc2)c(O[C@@H]2O[C@H](CO)[C@@H](O)[C@H](O)[C@H]2O)nn1C(C)C [remogliflozin]
[5]
  selectivity among SGLTs (in words): markedly increased selectivity for SGLT2

## CCOc1ccc(Cc2cc([C@@H]3O[C@H](CO)[C@@H](O)[C@H](O[C@@H]4O[C@H](C(=O)O)[C@@H](O)[C@H](O)[C@H]4O)[C@H]3O)ccc2Cl)cc1 [dapagliflozin 3-O-glucuronide]
[6]
  plasma level of the metabolite versus native drug: higher than the native drug
[7]
  activity of the metabolite: inactive

## O=C(CCc1ccc(O)cc1)c1c(O)cc(O)cc1O[C@@H]1O[C@H](CO)[C@@H](O)[C@H](O)[C@H]1O [Phlorizin]
[8]; [11]
  [18F]-dapagliflozin binding to the kidney cortex after pre-injection of the substance: completely blocked

## CCOc1ccc(Cc2cc([C@@H]3O[C@H](CO)[C@@H]([18F])[C@H](O)[C@H]3O)ccc2Cl)cc1 [[18F]-dapagliflozin, (1S)-1,5-anhydro-1-C-{4-chloro-3-[(4-ethoxyphenyl)methyl]phenyl}-4-[18F]-4-deoxy-D-glucitol]
[8]; [11]
  tracer binding site in microPET image: binding to the outer cortex of the kidney
[8]; with pre-injection of dapagliflozin or phlorizin
  18F-activity in the intestine: excretion by the liver into bile

## Cc1cc(OCCCNCC(C)(C)C(N)=O)ccc1Cc1c(O[C@@H]2O[C@H](CO)[C@@H](O)[C@H](O)[C@H]2O)n[nH]c1C(C)C [DSP-3235]
[5]
  selectivity among SGLTs (in words): targets SGLT1

## O=C[C@H]([18F])[C@@H](O)[C@H](O)[C@H](O)CO [2-FDG, 2-deoxy-2-[18F]fluoro-D-glucose]
[3]
  substrate for SGLTs: not a substrate

## CCOc1ccc(Cc2cc([C@@H]3O[C@H](CO)[C@@H](O)[C@H](O)[C@H]3O)ccc2Cl)cc1 [dapagliflozin]
[9]; over 28-58 weeks
  weight loss: up to 3.5 Kg
[9]; [12]
  reduction in fasting serum glucose: 22±10%
  reduction in post-prandial glucose absorption (area under the plasma glucose concentration curve): 20±10%
  sustained urinary glucose excretion: 30-65 gram/day
[9]; type 2 diabetic patients
  increase in hematocrit: up to 3%
  increase in urine volume: up to 470 ml/day
  loss of urinary glucose: 200 to 300 kcal/day
  reduction in diastolic blood pressure: 2-5 mm Hg
[8]; [11]
  [18F]-dapagliflozin binding to the kidney cortex after pre-injection of the substance: completely blocked

## COC(=O)OC[C@H]1O[C@@H](Oc2cc(C)cc(O)c2C(=O)CCc2ccc3occc3c2)[C@H](O)[C@@H](O)[C@@H]1O [T-1095]
[5]
  selectivity among SGLTs (in words): nonselective
[10]; diabetic animals
  blood glucose levels: lowered blood glucose levels
  renal glucose excretion: resulted in renal glucose excretion
[10]; diabetic rodents
  hyperinsulinemia and hypertriglyceridemia: reduced hyperinsulinemia and hypertriglyceridemia
  post-prandial hyperglycemia: suppressed post-prandial hyperglycemia
[10]; oral
  absorption of the pro-drug: absorbed from the gut into the circulation
